Results taken from PMC9866191, “Novel 9-Benzylaminoacridine Derivatives as Dual Inhibitors of Phosphodiesterase 5 and Topoisomerase II for the Treatment of Colon Cancer” (Molecules, 2023).

Columns and labels:
[1] = molecular target: T1, PDE5A (Homo sapiens, UniProt O76074); experiment: Phosphodiesterase 5 HTRF cGMP assay; type: biochemical; details: for IC50: means ± S.D. (n = 4), read-out: PDE5 IC50; for inhibition at 10 µM: read-out: PDE5 % Inhibition at 10 μM
T1 construct: purchased BPS Bioscience, San Diego, CA, USA
Procedure: All the synthesized acridine derivatives were tested for their in vitro ability to inhibit PDE5A at a screening dose of 10 µM.
The enzyme activities of phosphodiesterase 5 (PDE5) were measured using an HTRF cGMP assay kit (Cisbio, Codolet, France). […] Afterward, the HTRF reagent (cGMP-d2 and anti-cGMP-cryptate) was added for 1 h at 25 °C, and PDE activity was assayed on an HTRF reader (Tecan Infinite F200 Pro).

[2] = test system: panel of 60 human tumor cell lines; experiment: NCI 60-cell line one-dose screen (mean); type: cell-based; details: mean of the 60 cell lines, single dose 10^−5 M, read-out: Mean % Growth Inhibition
Procedure, shortened: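 Percent inhibition of cell growth was recorded after exposure to 10^−5 M compound. This primary screen used the full NCI-60 panel of human tumour lines.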

[3] = test system: CCRF-CEM; experiment: NCI-60 one-dose screen; type: cell-based; details: Homo sapiens, Leukemia panel, single dose 10^−5 M, read-out: Growth inhibition %
[4] = test system: ACHN; experiment: NCI-60 one-dose screen; type: cell-based; details: Homo sapiens, Renal Cancer panel, single dose 10^−5 M, read-out: Growth inhibition %
[5] = test system: BT-549; experiment: NCI-60 one-dose screen; type: cell-based; details: Homo sapiens; BT-549, Breast Cancer panel; single dose 10^−5 M; read-out: Growth inhibition %
[6] = test system: DU-145; experiment: NCI-60 one-dose screen; type: cell-based; details: Homo sapiens; DU-145, Prostate Cancer panel; single dose 10^−5 M; read-out: Growth inhibition %
[7] = test system: HT29; experiment: NCI-60 one-dose screen; type: cell-based; details: Homo sapiens, HT-29; HT29, Colon Cancer panel; single dose 10^−5 M; read-out: Growth inhibition %
[8] = test system: K-562; experiment: NCI-60 one-dose screen; type: cell-based; details: Homo sapiens, K562; K-562, Leukemia panel; single dose 10^−5 M; read-out: Growth inhibition %
[9] = test system: KM12; experiment: NCI-60 one-dose screen; type: cell-based; details: Homo sapiens; KM12, Colon Cancer panel; single dose 10^−5 M; read-out: Growth inhibition %
[10] = test system: MDA-MB-231/ATCC; experiment: NCI-60 one-dose screen; type: cell-based; details: Homo sapiens, Breast Cancer panel, single dose 10^−5 M, read-out: Growth inhibition %
[11] = test system: MDA-MB-468; experiment: NCI-60 one-dose screen; type: cell-based; details: Homo sapiens; MDA-MB-468, Breast Cancer panel; single dose 10^−5 M; read-out: Growth inhibition %
[12] = test system: NCI-H226; experiment: NCI-60 one-dose screen; type: cell-based; details: Homo sapiens; NCI-H226, Non-small cell lung panel; single dose 10^−5 M; read-out: Growth inhibition %
[13] = test system: NCI-H322M; experiment: NCI-60 one-dose screen; type: cell-based; details: Homo sapiens, Non-small cell lung panel, single dose 10^−5 M, read-out: Growth inhibition %
[14] = test system: NCI-H460; experiment: NCI-60 one-dose screen; type: cell-based; details: Homo sapiens; NCI-H460, Non-small cell lung panel; single dose 10^−5 M; read-out: Growth inhibition %
[15] = test system: PC-3; experiment: NCI-60 one-dose screen; type: cell-based; details: Homo sapiens; PC-3, Prostate Cancer panel; single dose 10^−5 M; read-out: Growth inhibition %
[16] = test system: RPMI-8226; experiment: NCI-60 one-dose screen; type: cell-based; details: Homo sapiens; RPMI-8226, Leukemia panel; single dose 10^−5 M; read-out: Growth inhibition %
[17] = test system: RXF 393; experiment: NCI-60 one-dose screen; type: cell-based; details: Homo sapiens; RXF 393, Renal Cancer panel; single dose 10^−5 M; read-out: Growth inhibition %
[18] = test system: SF-539; experiment: NCI-60 one-dose screen; type: cell-based; details: Homo sapiens; SF-539, CNS Cancer panel; single dose 10^−5 M; read-out: Growth inhibition %
[19] = test system: SK-MEL-28; experiment: NCI-60 one-dose screen; type: cell-based; details: Homo sapiens; SK-MEL-28, Melanoma panel; single dose 10^−5 M; read-out: Growth inhibition %
[20] = test system: SK-MEL-2; experiment: NCI-60 one-dose screen; type: cell-based; details: Homo sapiens; SK-MEL-2, Melanoma panel; single dose 10^−5 M; read-out: Growth inhibition %
[21] = test system: SK-OV-3; experiment: NCI-60 one-dose screen; type: cell-based; details: Homo sapiens; SK-OV-3, Ovarian Cancer panel; single dose 10^−5 M; read-out: Growth inhibition %
[22] = test system: SNB-19; experiment: NCI-60 one-dose screen; type: cell-based; details: Homo sapiens; SNB-19, CNS Cancer panel; single dose 10^−5 M; read-out: Growth inhibition %
[23] = test system: SNB-75; experiment: NCI-60 one-dose screen; type: cell-based; details: Homo sapiens; SNB-75, CNS Cancer panel; single dose 10^−5 M; read-out: Growth inhibition %
[24] = test system: SW-620; experiment: NCI-60 one-dose screen; type: cell-based; details: Homo sapiens; SW-620, Colon Cancer panel; single dose 10^−5 M; read-out: Growth inhibition %
[25] = test system: U251; experiment: NCI-60 one-dose screen; type: cell-based; details: Homo sapiens, U-251; U251, CNS Cancer panel; single dose 10^−5 M; read-out: Growth inhibition %
[26] = test system: LOX IMVI; experiment: NCI-60 one-dose screen; type: cell-based; details: Homo sapiens, Melanoma panel, single dose 10^−5 M, read-out: Growth inhibition %
[27] = test system: IGROV1; experiment: NCI-60 one-dose screen; type: cell-based; details: Homo sapiens, IGROV-1; IGROV1, Ovarian Cancer panel; single dose 10^−5 M; read-out: Growth inhibition %
[28] = test system: CCD-966SK; experiment: MTT cell proliferation assay, CCD-966SK; details: CCD966SK skin fibroblast, 72 h MTT

SMILES	IC50 [1]	inhibition at 10 µM [1]	inhibition at 10 µM [2]	inhibition at 10 µM [3]	inhibition at 10 µM [4]	inhibition at 10 µM [5]	inhibition at 10 µM [6]	inhibition at 10 µM [7]	inhibition at 10 µM [8]	inhibition at 10 µM [9]	inhibition at 10 µM [10]	inhibition at 10 µM [11]	inhibition at 10 µM [12]	inhibition at 10 µM [13]	inhibition at 10 µM [14]	inhibition at 10 µM [15]	inhibition at 10 µM [16]	inhibition at 10 µM [17]	inhibition at 10 µM [18]	inhibition at 10 µM [19]	also measured
COc1ccc2nc3ccccc3c(NCc3ccc(Cl)cc3)c2c1 [Compound 29, (4-Chlorobenzyl)-(2-methoxyacridin-9-yl)-amine]	5.35 ± 1.01 µM	66.1 ± 3.27%	93.3%	91.6%	82.9%	49.8%	78.5%	102%	130%	59.9%	75.7%	131%	51.2%	75.4%	87.5%	80.5%	145%	124%	106%	92.9%	inhibition at 10 µM [20]: 28.7%; inhibition at 10 µM [21]: 36%; inhibition at 10 µM [22]: 73.6%; inhibition at 10 µM [23]: 42.4%; inhibition at 10 µM [24]: 87.2%; inhibition at 10 µM [25]: 97.5%; inhibition at 10 µM [26]: 186%; inhibition at 10 µM [27]: 83.7%; % Inhibition at 10 µM [28]: 2.90 ± 2.51%
Cc1ccc2nc3ccccc3c(NCc3ccccc3)c2c1 [Compound 30, Benzyl-(2-methylacridin-9-yl)-amine]	4.52 ± 1.74 µM	68.8 ± 7.05%	64.5%	65.1%	76.8%	31%	64.2%	88.4%	89%	43.7%	64.2%	111%	50.2%	59.1%	82.9%	70.3%	93.2%	98.7%	76.8%	22%	inhibition at 10 µM [20]: 0.04%; inhibition at 10 µM [21]: 35.7%; inhibition at 10 µM [22]: 68.2%; inhibition at 10 µM [23]: 35%; inhibition at 10 µM [24]: 75.7%; inhibition at 10 µM [25]: 63%; inhibition at 10 µM [26]: 90.9%; inhibition at 10 µM [27]: 84.2%; % Inhibition at 10 µM [28]: 47.93 ± 1.06%
Cc1ccc2nc3ccccc3c(NCc3ccc(Cl)cc3)c2c1 [Compound 31, (4-Chlorobenzyl)-(2-methyl-acridin-9-yl)-amine]	4.78 ± 1.48 µM	65.7 ± 7.48%	66.9%	81.8%	66.7%	24.4%	48.6%	94.7%	97.4%	22.9%	62.3%	122%	27.7%	44.1%	70.5%	60.9%	128%	71%	59.8%	24.5%	inhibition at 10 µM [20]: -1.95%; inhibition at 10 µM [21]: 24.8%; inhibition at 10 µM [22]: 49.7%; inhibition at 10 µM [23]: 33.5%; inhibition at 10 µM [24]: 68%; inhibition at 10 µM [25]: 74.9%; inhibition at 10 µM [26]: 157%; inhibition at 10 µM [27]: 72.9%; % Inhibition at 10 µM [28]: 60.02 ± 3.07%; IC50 ([28]; read-out: IC50 μM): 4.96 ± 0.62 µM
